From ChEMBL document CHEMBL4373665, “Discovery of new non-acidic lonazolac analogues with COX-2 selectivity as potent anti-inflammatory agents” (Medchemcomm, 2019) come the findings set out here.

Data set [1] relates to Rattus norvegicus. Kind of data set: Anti-inflammatory activity in albino rat model of carrageenan-induced paw edema assessed as inhibition of carrageenan-induced paw edema at 100 mg/kg, po administered as single dose prior to carrageenan challenge measured after 3 hrs relative to control. It counts as functional.
In data set [2] the target is Prostaglandin G/H synthase 1 (Homo sapiens, UniProt P23219). Kind of data set: Inhibition of human recombinant COX1 assessed as decrease in prostaglandin production using arachidonic acid as substrate pretreated for 15 mins followed by substrate addition and measured after 2 mins by enzyme immunoassay. Format: single protein.
Prostaglandin G/H synthase 1, sequence (P23219 whole entry): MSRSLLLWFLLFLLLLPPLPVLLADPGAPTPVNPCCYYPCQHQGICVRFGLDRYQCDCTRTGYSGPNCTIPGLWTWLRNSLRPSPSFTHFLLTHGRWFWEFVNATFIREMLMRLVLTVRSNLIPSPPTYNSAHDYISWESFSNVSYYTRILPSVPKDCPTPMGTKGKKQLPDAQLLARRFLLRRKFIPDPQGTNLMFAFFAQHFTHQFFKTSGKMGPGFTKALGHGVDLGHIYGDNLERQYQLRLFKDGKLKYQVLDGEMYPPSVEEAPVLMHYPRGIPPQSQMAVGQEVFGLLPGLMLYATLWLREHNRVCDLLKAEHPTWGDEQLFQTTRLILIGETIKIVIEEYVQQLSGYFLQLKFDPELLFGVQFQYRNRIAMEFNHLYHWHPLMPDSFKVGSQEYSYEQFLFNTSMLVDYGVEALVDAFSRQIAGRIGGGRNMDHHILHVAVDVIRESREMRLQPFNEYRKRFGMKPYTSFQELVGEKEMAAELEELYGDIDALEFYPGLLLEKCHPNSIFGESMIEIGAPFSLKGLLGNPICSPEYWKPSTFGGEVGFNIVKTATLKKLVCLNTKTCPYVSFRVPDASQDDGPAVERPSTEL
The target of data set [3] is T1, Prostaglandin G/H synthase 2 (Homo sapiens, UniProt P35354).
T1 sequence (P35354 whole entry): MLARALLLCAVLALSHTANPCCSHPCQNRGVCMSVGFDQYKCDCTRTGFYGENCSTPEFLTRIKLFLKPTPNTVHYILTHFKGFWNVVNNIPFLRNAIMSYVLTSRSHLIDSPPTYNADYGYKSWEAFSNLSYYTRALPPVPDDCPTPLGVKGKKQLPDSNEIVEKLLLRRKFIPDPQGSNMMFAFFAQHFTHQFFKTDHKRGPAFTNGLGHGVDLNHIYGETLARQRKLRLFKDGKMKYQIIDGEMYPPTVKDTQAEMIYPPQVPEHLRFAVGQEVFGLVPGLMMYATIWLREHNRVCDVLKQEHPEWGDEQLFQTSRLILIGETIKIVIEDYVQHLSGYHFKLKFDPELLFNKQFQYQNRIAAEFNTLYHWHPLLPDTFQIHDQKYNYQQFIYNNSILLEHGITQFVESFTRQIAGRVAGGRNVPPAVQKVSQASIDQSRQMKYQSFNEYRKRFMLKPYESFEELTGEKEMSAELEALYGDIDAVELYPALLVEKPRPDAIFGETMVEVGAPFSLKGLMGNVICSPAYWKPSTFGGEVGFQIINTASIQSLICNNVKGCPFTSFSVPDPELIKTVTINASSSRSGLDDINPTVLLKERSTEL
Kind of data set: Inhibition of human recombinant COX2 assessed as decrease in prostaglandin production using arachidonic acid as substrate pretreated for 15 mins followed by substrate addition and measured after 2 mins by enzyme immunoassay.

The test system of data set [4] is Rattus norvegicus. Kind of data set: Anti-inflammatory activity in albino rat model of carrageenan-induced paw edema assessed as inhibition of carrageenan-induced paw edema at 100 mg/kg, po administered as single dose prior to carrageenan challenge measured after 1 hr relative to control. Format: functional.
Data set [5] has as its system Rattus norvegicus. Kind of data set: Anti-inflammatory activity in albino rat model of carrageenan-induced paw edema assessed as paw edema thickness at 100 mg/kg, po administered as single dose prior to carrageenan challenge measured after 12 hrs. Format: functional.
Data set [6] has as its system Rattus norvegicus. Description: Anti-inflammatory activity in albino rat model of carrageenan-induced paw edema assessed as inhibition of carrageenan-induced paw edema at 100 mg/kg, po administered as single dose prior to carrageenan challenge measured after 8 hrs relative to control. It counts as functional.
The test system of data set [7] is Rattus norvegicus. Kind of data set: Anti-inflammatory activity in albino rat model of carrageenan-induced paw edema assessed as inhibition of carrageenan-induced paw edema at 100 mg/kg, po administered as single dose prior to carrageenan challenge measured after 4 hrs relative to control. It counts as functional.
For data set [8], the species on record is Homo sapiens. Description: Selectivity index, ratio of IC50 for human recombinant COX1 to IC50 for human recombinant COX2 using arachidonic acid as substrate.
Data set [9] has as its system Rattus norvegicus. Kind of data set: Anti-inflammatory activity in albino rat model of carrageenan-induced paw edema assessed as paw edema thickness at 100 mg/kg, po administered as single dose prior to carrageenan challenge measured after 8 hrs. Format: functional.
Data set [10] is described as follows: Ulcerogenic activity in rat assessed as effect on gastric submucosa at 50 mg/kg by hematoxylin and eosin staining based assay. Format: toxicity, organism-based. To be noted: in vivo.
Data set [11] is described as follows: Hepatotoxicity in rat assessed as effect on central veins in liver at 50 mg/kg by hematoxylin and eosin staining based assay. It counts as toxicity, organism-based. To be noted: in vivo.
The nature of data set [12]: Ulcerogenic activity in rat assessed as incidence of gastric ulceration at 50 mg/kg, sc qd for 4 days post 18 hrs fasting measured after 4 days relative to control. To be noted: in vivo, 96 h. It counts as toxicity, organism-based.
Data set [13] relates to Rattus norvegicus. Description: Anti-inflammatory activity in albino rat model of carrageenan-induced paw edema assessed as inhibition of carrageenan-induced paw edema at 100 mg/kg, po administered as single dose prior to carrageenan challenge measured after 12 hrs relative to control. Format: functional.
Data set [14] can be described thus: Hepatotoxicity in rat assessed as effect on hepatocytes in periportal area at 50 mg/kg by hematoxylin and eosin staining based assay. It counts as toxicity, organism-based. Particulars: in vivo.
A short description of data set [15]: Hepatotoxicity in rat assessed as effect on portal veins at 50 mg/kg by hematoxylin and eosin staining based assay. It counts as toxicity, organism-based. Particulars: in vivo.
Data set [16] can be described thus: Nephrotoxicity in rat assessed as effect on proximal tubule at 50 mg/kg by hematoxylin and eosin staining based assay. Format: toxicity, organism-based. Particulars: in vivo.
Data set [17] can be described thus: Nephrotoxicity in rat assessed as effect on distal tubule at 50 mg/kg by hematoxylin and eosin staining based assay. Format: toxicity, organism-based. Particulars: in vivo.
Data set [18] in a line: Ulcerogenic activity in rat assessed as effect on gastric mucosa at 50 mg/kg by hematoxylin and eosin staining based assay. It counts as toxicity, organism-based. Particulars: in vivo.
Data set [19] can be described thus: Nephrotoxicity in rat assessed as effect on glomeruli at 50 mg/kg surrounded by Bowmann's capsule by hematoxylin and eosin staining based assay. Format: toxicity, organism-based. Particulars: in vivo.
The nature of data set [20]: Ulcerogenic activity in rat assessed as average severity of ulcers formed at 50 mg/kg, sc qd for 4 days post 18 hrs fasting measured after 4 days. Format: toxicity, organism-based. Particulars: in vivo, 96 h.
The nature of data set [21]: Ulcerogenic activity in rat assessed as effect on mucosal blood vessel at 50 mg/kg by hematoxylin and eosin staining based assay. Format: toxicity, organism-based. Particulars: in vivo.
Data set [22] can be described thus: Ulcerogenic activity in rat assessed as average number of ulcers formed at 50 mg/kg, sc qd for 4 days post 18 hrs fasting measured after 4 days. To be noted: in vivo, 96 h. It counts as toxicity, organism-based.
Data set [23] can be described thus: Ulcerogenic activity in rat assessed as effect on parietal cells at 50 mg/kg by hematoxylin and eosin staining based assay. To be noted: in vivo. It counts as toxicity, organism-based.
Data set [24] in a line: Hepatotoxicity in rat assessed as effect on bile ducts at 50 mg/kg by hematoxylin and eosin staining based assay. To be noted: in vivo. Format: toxicity, organism-based.
The nature of data set [25]: Ulcerogenic activity in rat assessed as ulcer index at 50 mg/kg, sc qd for 4 days post 18 hrs fasting measured after 4 days. Format: toxicity, organism-based. To be noted: in vivo, 96 h.

As for `c1ccc(COc2ccc(-c3nn(-c4ccccc4)cc3-c3cc(-c4ccccc4)no3)cc2)cc1`, the inhibition in vivo at 100 mg/kg in [1] stood at 42.5%; in data set [4], 73.8%; in data set [6], 6.9%; in data set [7] it was 28.4%. Further, the IC50 was 9.57 µM in data set [2] and 2.11 µM in [3]. Moreover, in data set [5], the Activity stood at 1.83 mm. In data set [8], the Ratio IC50 came to 4.54.
On to `S=c1nc(-c2ccccc2)cc(-c2cn(-c3ccccc3)nc2-c2ccc(OCc3ccccc3)cc2)[nH]1`, for which the inhibition in vivo at 100 mg/kg amounted to 33.8% in data set [1], 48.5% in [4] and 14.6% in [7]. The values for the IC50 in [2] and in data set [3] were 0.31 µM and 1 µM, respectively. Also, the Activity came to 1.88 mm in data set [5] and 2.19 mm in data set [9]. Moreover, the Ratio IC50 in [8] turned out to be 0.31.
On to `CC(=O)n1nc(-c2ccccc2)cc1-c1cn(-c2ccccc2)nc1-c1ccc(OCc2ccccc2)cc1`, for which the Activity result in data set [10] is given as “Toxic”; in data set [11], “Toxic”; in data set [12] it was 4%; in data set [14], “Toxic”; in data set [15], “Toxic”; in data set [16] it was “Toxic”. The Activity entry in data set [17] was “Toxic”; in data set [18], “Toxic”; in data set [19] it was “Toxic”; in data set [20] it was 1.2; in data set [21] it was “Toxic”; in data set [22], 0.8. The Activity result in data set [23] and in data set [24] was “Toxic” each time. Besides, the inhibition in vivo at 100 mg/kg in data set [1] was 64.6%; in data set [13], 57.7%; in data set [4], 78.3%; in [6], 55.2%; in data set [7] it was 59.8%. In addition, the IC50 in [2] was 13 µM; in [3] it was 1.93 µM. The UI in data set [25] is listed as 6. The Ratio IC50 in data set [8] came to 6.74.
For the molecule `N#CC1=C(N)OC(c2ccc(Cl)cc2)=CC1c1cn(-c2ccccc2)nc1-c1ccc(OCc2ccccc2)cc1` (stereo not given), the inhibition in vivo at 100 mg/kg in data set [1] is 38.2%; in data set [4], 28.8%; in data set [7], 18.2%. Further, the figures for the IC50 in data set [2] and in [3] were 9.68 µM and 11.6 µM, respectively. Besides, the Activity in data set [5] is listed as 1.85 mm; in [9], 2.31 mm. Also, the Ratio IC50 in data set [8] is 0.831.
Turning to `NC(=S)n1nc(-c2ccccc2)cc1-c1cn(-c2ccccc2)nc1-c1ccc(OCc2ccccc2)cc1`, the results for the inhibition in vivo at 100 mg/kg in data set [1], in [4] and in data set [7] were 7.29%, 3.97% and 2.15%, respectively. For the same molecule, the IC50 in data set [2] and in [3] was 5.2 µM in each case. The values for the Activity in data set [5] and in data set [9] were 1.8 mm and 2.2 mm, respectively. Moreover, the Ratio IC50 in [8] is 1.
On to `Nc1nc(-c2ccc(Cl)cc2)cc(-c2cn(-c3ccccc3)nc2-c2ccc(OCc3ccccc3)cc2)n1`, for which the results for the inhibition in vivo at 100 mg/kg in data set [1], in [4] and in data set [7] were 30.4%, 50.8% and 20.4%, respectively. Besides, the IC50 in data set [2] came to 0.6 µM; in data set [3], 3.99 µM. In addition, the Activity is listed as 1.8 mm in data set [5] and 2.17 mm in data set [9]. Further, in data set [8], the Ratio IC50 was found to be 0.15.
Regarding `O=C(/C=C/c1cn(-c2ccccc2)nc1-c1ccc(OCc2ccccc2)cc1)c1ccccc1`, the Activity result in data set [10] was “Non-Toxic”; in data set [11] it was “Non-Toxic”; in data set [12], 2%; in [14], “Non-Toxic”; in data set [15], “Non-Toxic”; in [16], “Non-Toxic”. For the same molecule, the Activity result in data set [17] is reported as “Non-Toxic”; in data set [18], “Non-Toxic”; in [19], “Non-Toxic”; in [20] it was 0.4; in [21], “Non-Toxic”; in [22], 0.4. In addition, the Activity result in data set [23] and in data set [24] was “Non-Toxic” in each case. Besides, the inhibition in vivo at 100 mg/kg in data set [1] was 58.2%; in data set [13] it was 32.5%; in data set [4], 81.7%; in [6], 23.8%; in data set [7], 51.2%. Further, the IC50 in [2] amounted to 15.5 µM; in [3], 1.88 µM. Also, the UI in [25] came to 2.8. The Ratio IC50 in data set [8] is 8.22.
`O=C(/C=C/c1cn(-c2ccccc2)nc1-c1ccc(OCc2ccccc2)cc1)c1ccc(Cl)cc1`: the Activity result is “Non-Toxic” in data set [10]; “Non-Toxic” in data set [11]; 2% in [12]; “Non-Toxic” in data set [14]; “Non-Toxic” in data set [15]; “Non-Toxic” in [16]. The Activity entry in data set [17] is “Non-Toxic”; in data set [18] it was “Non-Toxic”; in data set [19], “Non-Toxic”; in data set [20] it was 0.2; in data set [21] it was “Non-Toxic”; in data set [22], 0.2. For the same molecule, the Activity result in data set [23] and in [24] was “Non-Toxic” each time. Besides, the inhibition in vivo at 100 mg/kg turned out to be 77.1% in [1]; 41.4% in data set [13]; 89.7% in data set [4]; 48.6% in data set [6]; 69.9% in [7]. Further, the IC50 came out at 5.59 µM in [2] and 0.6 µM in [3]. Besides, the UI in data set [25] is on record as 2.4. Besides, the Ratio IC50 in data set [8] worked out at 9.32.
Regarding `CC(=O)n1nc(-c2ccc(Cl)cc2)cc1-c1cn(-c2ccccc2)nc1-c1ccc(OCc2ccccc2)cc1`, the inhibition in vivo at 100 mg/kg came to 49.7% in [1], 69.8% in data set [4] and 25.8% in data set [7]. The figures for the IC50 in [2] and in data set [3] were 2.72 µM and 2.79 µM, respectively. Besides, the Activity in [5] was 1.82 mm; in data set [9] it was 2.17 mm. Further, the Ratio IC50 in [8] was found to be 0.975.
On to `NC(=S)n1nc(-c2ccc(Cl)cc2)cc1-c1cn(-c2ccccc2)nc1-c1ccc(OCc2ccccc2)cc1`, for which the inhibition in vivo at 100 mg/kg in data set [1] is 24.6%; in data set [4], 47.5%; in data set [6] it was 5.9%; in [7] it was 24.5%. Further, the IC50 in data set [2] was found to be 6.07 µM; in data set [3] it was 4.69 µM. In addition, the Activity in data set [5] was found to be 1.89 mm. For the same molecule, in data set [8], the Ratio IC50 was 1.31.
